Values joined by “and” are separate entries in the source; they are usually repeats but may differ in a detail not shown here. Equal entries are not always repeated.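 96-well plates; 48 h exposure; 5 concentrations. Endpoints by linear interpolation between flanking doses. Not reached: highest tested concentration assigned. GI50 = concentration required for 50% inhibition of growth. Definition used: TGI = concentration required for complete inhibition of growth.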
Key:
Test in all cases: growth of human tumour cells (NCI), 48 h
UACC-62 melanoma = test system: UACC-62 melanoma
MOLT-4 leukemia = test system: MOLT-4 leukemia
786-0 renal = test system: 786-0 renal
LOX IMVI melanoma = test system: LOX IMVI melanoma
SW-620 colon = test system: SW-620 colon
RXF 393 renal = test system: RXF 393 renal
OVCAR-8 ovarian = test system: OVCAR-8 ovarian
DU-145 prostate = test system: DU-145 prostate
MDA-MB-231 breast = test system: MDA-MB-231 breast

Compound	TGI (UACC-62 melanoma) [µM]	TGI (MOLT-4 leukemia)	TGI (786-0 renal) [µM]	TGI (LOX IMVI melanoma) [µM]	TGI (SW-620 colon) [µM]	TGI (RXF 393 renal) [µM]	TGI (OVCAR-8 ovarian) [µM]	TGI (DU-145 prostate) [µM]	TGI (MDA-MB-231 breast) [µM]	GI50 (MOLT-4 leukemia) [µM]
COC(=O)CCC(=O)NC1=C(Nc2ccccc2)C(=O)c2ccccc2C1=O	7.55	38.9 µM	25.4	13.9	30.6	21.4	47.4	23.2	30.1	–
CC(=O)CC(=O)N1CCSC1=S	> 10	> 10 µM	> 10	> 10	> 10	> 10	> 10	> 10	> 10	–
Cc1c(OCc2cccc3ccccc23)ccc2c(=O)cc(SCCN3CCOCC3)oc12	> 100	> 100 µM	> 100	> 100	> 100	> 100	> 100	> 100	> 100	–
CCOC(=O)c1cc2c3c(c(C(C)=O)c(OC)c2[nH]1)N(C(=O)CC)CC3	34.4	35.9 µM	34.9	29.6	> 100	37.2	46.9	29.6	40.9	–
CC(C)[C@H](C)/C=C/[C@@H](C)C1CC[C@H]2[C@@]34C=C[C@]5(C[C@@H](O)CC[C@]5(C)[C@H]3CC[C@]12C)OO4 (stereo partly specified)	43.6	> 100 µM	47.7	41.6	78.8	> 100	66.4	56	84.9	–
O=C1C(N2CCN(CCOCCO)CC2)=C(Cl)C(=O)c2ncccc21	43.8	5.15 µM and 31.4 µM	36	26.7	50.7	35.1	39.4	> 100	34.2	9.63
O=C(O)CSC1=NNC2(C(=O)N1)c1ccccc1-c1ccccc12	> 10	> 10 µM	> 10	> 10	> 10	> 10	> 10	> 10	> 10	–
O=C1Nc2cccc(Cl)c2/C1=C\c1c(-c2ccccc2)nc2n1CCS2	45.6	39.4 µM	36.2	36.3	35.2	42.5	83.6	44.9	49	–
NC1CCCCC1NCCNC1CCCCC1N (stereo unspecified)	> 100	> 100 µM	> 100	> 100	> 100	> 100	> 100	> 100	> 100	–
C=C(Br)C[N+]12CN3CN(CN(C3)C1)C2	> 100	> 100 µM	> 100	> 100	> 100	> 100	> 100	> 100	> 100	–
c1cc2cc3c4c5c(cc6ccc7cc8cc9c%10c8c8c7c6c5c8c5c%10c(c1C9N1CCOCCOCCOCCOCCOCC1)c2c45)C3 (stereo unspecified)	> 100	> 100 µM	> 100	> 100	> 100	> 100	> 100	> 100	> 100	–
CC(C)(C)c1cc(OCc2nnc3sc(Cc4ccccc4)nn23)c(Cl)cc1OCc1nnc2sc(Cc3ccccc3)nn12	49.8	> 100 µM	46.7	> 100	> 100	38.8	73.6	> 100	39	–
CC(CCc1nc2ccccc2s1)(c1ccc(O)cc1)c1ccc(O)cc1	29.4	42.9 µM	30.2	29.4	43.5	33.2	39.6	31.6	32	–
O=C1C=CC2(O[C@H](C3CCCCC3)[C@@H](C3CCCCC3)O2)C(SC(=O)c2ccccc2)C1 (stereo partly specified)	8.57	3.77 µM	5.09	5.92	16.8	2.49	13.9	10.4	5.11	–
CC(=O)OCC1OC(SC2=NC(=O)CS2)C(OC(C)=O)C(OC(C)=O)C1OC(C)=O (stereo unspecified)	> 100	> 100 µM	> 100	> 100	> 100	> 100	> 100	> 100	> 100	–

Source: PubChem BioAssay (NCI)
